Legend:
[1] = Pharmacokinetics study in mice; assay type: in vivo; details: male, ICR; mouse plasma, single oral dose 10 mg/kg
Protocol: Experimental Method: The pharmacokinetics of the test compounds were studied with male ICR mice (n=6 for each group, weight 20˜30 g) after a single intraveneous (i.v.) and oral (p.o.) dosing at 2.5 and 10 mg/kg, respectively. For i.v. dosing formulation, the test compound was dissolved in DMSO (0.25%)-solutol (10%)-ethanol (10%)-physiological saline (79.75%) at the concentration of 0.25 mg/mL. And the p.o. dosing formulation (1 mg/mL) was prepared with 0.5% CMC-Na. After i.v. or p.o. dosing, blood samples were collected via the ophthalmic vein at 0 (pre-dose), 5, 15, 30 min and 1, 1.5, 2, 4, 8, 24 h, anti-coagulated with heparin-Na. After centrifugation, plasma samples were separated and protein precipitated with acetonitrile (containing internal standard). The concentration of the testing compounds in these plasma samples were then determined by LC/MS/MS.

[2] = molecular target: T1, recombinant human KDR catalytic domain (Homo sapiens, UniProt P35968); test: KDR kinase inhibition, Z'-LYTE assay kit; assay type: biochemical; details: 10 μM ATP, 1 μM Tyr1 peptide, 25° C., 1 hour
T1 construct: 300 ng/mL of recombinant human KDR catalytic domain
Protocol: The KDR kinase inhibition activity of the above three compounds is tested using the Z-Lyte assay kit.
Z′-LYTE™ Tyr1 peptide (Invitrogen, Cat. PV3190) is used to test the KDR kinase inhibitory activity of the above three compounds. The testing system contains 300 ng/mL of recombinant human KDR catalytic domain, 10 μM of ATP, 1 μM of substrate peptide, and a test compound at a series of different concentrations in 384-well plate (Thermo Labsystems, Cat. 7805); total volume is 10 μL. The enzymatic inhibition proceeds at room temperature (25° C.) for 1 hour on the shaker, followed by addition of 5 μL of enhancer and incubation for an additional 1 hour at room temperature on the shaker. 5 μL of stop solution is added to stop the reaction. The KDR kinase inhibition activity of a test compound is calculated based on the method recommended by the manufacturer. The IC50 values of the KDR kinase inhibition activity are calculated using XLfit software.
(1) Dilution of the test compounds: each of the above three compounds is dissolved in DMSO to prepare a […] stock solution and stored in −20° C. freezer. The stock solution is diluted to the four times concentration of the desired test concentration with 8% DMSO before use. […]
(7) Kinase inhibition: Add the following components in turn in a 384-well plate. […] Seal the plate with aluminum foil and allow the reaction to proceed at room temperature (25° C.) for 1 hour on the shaker (250 rpm). • e) Dilution of enhancer solution (right before use): according to the recommendation of manufacturer, dilute enhancer stock with development dilution buffer 128-fold. • f) Fluorescence enhancement: add 5 μL/well of the diluted enhancer solution in all wells, briefly spin at 1000 rpm, re-seal the plate and let the reaction proceed at room temperature for an additional hour on the shaker. • g) Add 5 μL/well of stop solution to all wells, briefly spin at 1000 rpm. Mix at room temperature for 2 minutes on the shaker, and read florescence signals on Victor3 (Perkin Elmer) at excitation 400 nm, emission 445 nm/530 nm. […]

[3] = Thermodynamic stability comparison, slurry of Form I and Form II mixture; assay type: physicochemical; details: 1 g each of Form I and Form II in 10 mL methanol, 60° C., 20 h, powder X-ray diffraction
Source text: Then the suspension was filtered with a Buchner funnel and paper disk, and dried under a vacuum oven.

[4] = Hygroscopicity, saturated salt solution method; assay type: physicochemical; details: 10 days, 25° C.; for Stability under the testing humidity conditions: crystalline form unchanged; for Hygroscopicity (in words): saturated NaCl solution
Protocol: The desiccator was closed and left standing for 10 days at 25° C. Then the samples were taken out and weighed again, and the weight gain was calculated.

FGFR1 kinase = molecular target: T2, FGFR1 kinase (Homo sapiens, UniProt P11362); test: FGFR1 kinase activity assay, Transcreener FP; assay type: biochemical; details: 10 μM ATP, 60 minutes, room temperature
T2 construct: purchased Invitrogen PV3146
Protocol: The Transcreener FP technology of Bellbrook Labs is used in the FGFR1 kinase activity assay. The kinase reaction was done in 96-well half area black plate (Greiner, Cat. 675076). In each well, were added 5 μL of test compounds in 5% DMSO, 10 μL of 0.3 ng/μL FGFR1 kinase (Invitrogen, PV3146) diluted in assay buffer. The reaction was started by the addition of 10 of 62.5 ng/μL poly (Glu:Tyr, 4:1) substrate (Sigma, P0275) and 25 μmol/L of ATP mixture, and incubated for 60 minutes at room temperature. The final conditions for kinase assay were: 10 μM of ATP, 0.12 ng/μL of FGFR1 kinase, 25 ng/μL of substrate, 53.6 mmol/L of HEPES (pH 7.5), 21.6 mmol/L of MgCl2, 0.536 mmol/L of MnCl2, 1 mmol/L of DTT and 0.01% Triton X-100, 1% DMSO.
At the same time, an ADP standard curve was performed. The standard curve mimics a kinase reaction in the absence of test compound, kinase, and lipid substrate. The standard curve contained 12 concentration points, and total [ATP+ADP] ranged from 10 μM to 0.01 μM. […]
After reacting for 60 minutes at room temperature, 25 μL of transcreener Kinase Kit reagent—ADP Detection Mix—(Bellbrook Labs) was added and reacted for an additional 1.0 hours. The plates were then read in Tecan Infinite F500 at an excitation of 610 nm and an emission of 670 nm. […] The inhibition of test compound on ADP production was calculated based on ADP concentration calculated from standard curve. […]

hERG channels = molecular target: T3, hERG channels (Homo sapiens, UniProt Q12809); test: hERG whole-cell patch clamp in CHO cells stably transfected with hERG cDNA; assay type: cell-based; details: CHO cells expressing hERG, tail current; read-out: hERG current inhibition IC50
T3 construct: expressed in transfected cells; host or cells: CHO
Protocol: A CHO cell line stably transfected with hERG cDNA and expressing hERG channels was used for the study. Cells were cultured in a medium comprising:
Before testing, cells were harvested using an Accumax (Innovative Cell Technologies).
Whole-cell recording was performed using a 700B (Axon Instruments). The cells were voltage clamped at a holding potential of −80 mV. The hERG current was activated by depolarizing at +20 mV for 2 sec, after which the current was taken back to −50 mV for 2 sec to remove the inactivation and observe the deactivating tail current. The first step at −50 mV was used as a baseline for measuring the tail current peak amplitude.
Test compound was prepared as a 10 mM DMSO stock solution in a glass vial. The stock solution was mixed vigorously for 10 minute at room temperature. The stock solution was diluted in a glass vial using External Solution; the dilution was prepared no longer than 30 minutes before use. Equal amounts of DMSO (0.1%) were present at final dilution.
After achieving whole-cell configuration, the cells were monitored for 90 sec to assess stability and washed with external solution for 66 sec. The voltage protocol described above was then applied to the cells every 20 sec throughout the whole procedure. […]
Data were analyzed using Clampfit (both by Axon Instruments) and Origin 7 (Originlab Corporation).

T1 sequence (P35968 834-1162 limits assumed): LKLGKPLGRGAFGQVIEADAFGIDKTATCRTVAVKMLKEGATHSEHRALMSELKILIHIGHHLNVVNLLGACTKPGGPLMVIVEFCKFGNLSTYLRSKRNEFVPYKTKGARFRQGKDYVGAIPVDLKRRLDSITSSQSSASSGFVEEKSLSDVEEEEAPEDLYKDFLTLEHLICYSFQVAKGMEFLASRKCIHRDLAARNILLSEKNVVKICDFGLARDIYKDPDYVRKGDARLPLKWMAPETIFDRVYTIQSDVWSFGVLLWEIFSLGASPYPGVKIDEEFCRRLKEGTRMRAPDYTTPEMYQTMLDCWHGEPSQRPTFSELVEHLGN
T3 sequence (Q12809 whole entry): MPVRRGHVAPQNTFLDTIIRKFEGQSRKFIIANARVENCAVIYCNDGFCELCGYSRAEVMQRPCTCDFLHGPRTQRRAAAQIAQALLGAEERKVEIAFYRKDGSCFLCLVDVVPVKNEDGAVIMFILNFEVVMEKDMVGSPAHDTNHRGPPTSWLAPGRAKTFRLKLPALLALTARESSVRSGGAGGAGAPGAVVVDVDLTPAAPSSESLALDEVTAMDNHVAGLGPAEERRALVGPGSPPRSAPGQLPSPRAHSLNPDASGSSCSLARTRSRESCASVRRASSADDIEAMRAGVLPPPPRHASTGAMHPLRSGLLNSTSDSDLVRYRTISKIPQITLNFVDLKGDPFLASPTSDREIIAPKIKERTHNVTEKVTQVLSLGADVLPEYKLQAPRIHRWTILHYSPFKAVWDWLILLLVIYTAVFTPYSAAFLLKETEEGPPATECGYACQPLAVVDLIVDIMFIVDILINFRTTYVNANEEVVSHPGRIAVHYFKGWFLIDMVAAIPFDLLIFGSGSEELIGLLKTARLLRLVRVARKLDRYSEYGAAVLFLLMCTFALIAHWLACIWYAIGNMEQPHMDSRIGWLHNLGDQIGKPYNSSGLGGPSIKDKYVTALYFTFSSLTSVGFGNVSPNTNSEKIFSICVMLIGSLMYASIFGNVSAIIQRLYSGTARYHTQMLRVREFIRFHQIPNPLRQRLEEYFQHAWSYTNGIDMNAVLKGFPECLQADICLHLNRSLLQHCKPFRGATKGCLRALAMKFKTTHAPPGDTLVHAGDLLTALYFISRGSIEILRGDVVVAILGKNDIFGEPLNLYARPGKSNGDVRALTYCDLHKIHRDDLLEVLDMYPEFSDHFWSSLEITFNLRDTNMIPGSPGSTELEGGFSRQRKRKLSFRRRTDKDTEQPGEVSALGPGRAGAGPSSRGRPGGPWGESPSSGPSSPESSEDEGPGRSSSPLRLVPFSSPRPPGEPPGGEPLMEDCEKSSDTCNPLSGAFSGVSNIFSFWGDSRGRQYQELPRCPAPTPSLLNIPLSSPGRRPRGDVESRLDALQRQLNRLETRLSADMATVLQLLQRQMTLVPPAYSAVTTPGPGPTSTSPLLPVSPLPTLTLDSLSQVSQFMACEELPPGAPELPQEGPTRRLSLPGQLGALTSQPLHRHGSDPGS
T2 sequence (P11362 22-822): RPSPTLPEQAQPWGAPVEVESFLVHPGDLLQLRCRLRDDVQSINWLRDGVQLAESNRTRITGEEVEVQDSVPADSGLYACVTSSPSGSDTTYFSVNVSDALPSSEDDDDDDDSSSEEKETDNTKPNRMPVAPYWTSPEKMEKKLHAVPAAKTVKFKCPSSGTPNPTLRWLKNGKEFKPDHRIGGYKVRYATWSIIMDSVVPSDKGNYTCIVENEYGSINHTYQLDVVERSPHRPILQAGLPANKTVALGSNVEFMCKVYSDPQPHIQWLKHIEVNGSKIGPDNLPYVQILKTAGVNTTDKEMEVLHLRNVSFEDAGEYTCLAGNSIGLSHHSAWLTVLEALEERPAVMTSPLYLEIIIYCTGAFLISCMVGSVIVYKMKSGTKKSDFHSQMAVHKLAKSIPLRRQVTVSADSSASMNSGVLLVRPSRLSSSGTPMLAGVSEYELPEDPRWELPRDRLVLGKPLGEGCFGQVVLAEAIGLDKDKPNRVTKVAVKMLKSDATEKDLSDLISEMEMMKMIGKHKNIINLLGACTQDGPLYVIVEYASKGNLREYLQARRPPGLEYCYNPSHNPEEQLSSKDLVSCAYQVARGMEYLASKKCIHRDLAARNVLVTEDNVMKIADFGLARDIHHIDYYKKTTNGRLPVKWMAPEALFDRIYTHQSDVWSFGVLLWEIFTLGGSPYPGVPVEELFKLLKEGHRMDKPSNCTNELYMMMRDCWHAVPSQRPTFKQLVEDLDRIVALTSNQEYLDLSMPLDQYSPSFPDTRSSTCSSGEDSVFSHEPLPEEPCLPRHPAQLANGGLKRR

IC50 [2] | SMILES | AUC [1] | Cmax [1] | Thermodynamic stability, form after slurry [3] | Stability under the testing humidity conditions [4] | Hygroscopicity (in words) ([4]; listed as Form I sample) | IC50 (FGFR1 kinase) | IC50 (hERG channels) | Hygroscopicity (in words) [4]
38 nM | CNS(=O)(=O)Cc1cccc(Nc2nccc(Oc3ccc4[nH]c(C)cc4c3)n2)c1 [Compound B, N-methyl-1-(3-((4-((2-methyl-1H-indol-5-yl)oxy)pyrimidin-2-yl)amino)phenyl)methanesulfonamide, reference compound] | 26 ng·h/mL | 20 ng/mL |  |  |  |  |  | 
 | Cc1cc2cc(Oc3ccnc(Nc4cccc(CS(=O)(=O)NCCN(C)C)c4)n3)ccc2[nH]1 [Form I, Form I N-(2-(dimethylamino)ethyl)-1-(3-((4-((2-methyl-1H-indol-5-yl)oxy)pyrimidin-2-yl)amino)phenyl)-methanesulfonamide] |  |  | physically and/or thermodynamically more stable than Form II | stable | non-hygroscopic |  |  | 
111 nM | Cc1cc2c(F)c(Nc3ccnc(Nc4cccc(OCCN5CCOCC5)c4)n3)ccc2[nH]1 [compound of Formula C, N^4-(4-fluoro-2-methyl-1H-indol-5-yl)-N^2-(3-(2-morpholinoethoxy)phenyl)pyrimidine-2,4-diamine, reference compound] |  |  |  |  |  |  | 547 nM | 
 | Cc1cc2cc(Oc3ccnc(Nc4cccc(CS(=O)(=O)NCCN(C)C)c4)n3)ccc2[nH]1 [Form II, Form II N-(2-(dimethylamino)ethyl)-1-(3-((4-((2-methyl-1H-indol-5-yl)oxy)pyrimidin-2-yl)amino)phenyl)methanesulfonamide] |  |  | transformed to the Form I | stable |  |  |  | slightly hygroscopic

SMILES | IC50 [2] | AUC [1] | Cmax [1] | Thermodynamic stability, form after slurry [3] | Stability under the testing humidity conditions [4] | Hygroscopicity (in words) ([4]; listed as Form I sample) | IC50 (FGFR1 kinase) | IC50 (hERG channels) | Hygroscopicity (in words) [4]
Cc1cc2cc(Oc3ccnc(Nc4cccc(CS(=O)(=O)NCCN(C)C)c4)n3)ccc2[nH]1 [Compound A, N-(2-(dimethylamino)ethyl)-1-(3-((4-((2-methyl-1H-indol-5-yl)oxy)pyrimidin-2-yl)amino)phenyl)-methanesulfonamide] | 21 nM | 397 ng·h/mL | 138 ng/mL |  |  |  | 53 nM | 6800 nM | 

Source: patent US8946249B2, “Compound, certain novel forms thereof, pharmaceutical compositions thereof and methods for preparation and use” (Hutchinson Medipharma Limited, priority 2009, dated 2015)
